Experimental data published in publication PMC11926788, “Effect of SSR504734, a Selective Glycine Transporter Type 1 Inhibitor, on Seizure Thresholds, Neurotransmitter Levels, and Inflammatory Markers in Mice” (ACS Chemical Neuroscience, 2025).
Structures can show the parent of a compound that is named as a salt. Where two headings read alike, the source gives them in different places.

What was measured:
[1] = Pharmacokinetic study of SSR504734 in mice (serum and tissue concentrations by LC-MS/MS, noncompartmental analysis); assay type: in vivo
Method: SSR504734 was administered i.p. at the dose of 30 mg/kg, and mice were sacrificed by decapitation at 5, 15, 30, 60, 120, 240, and 480 min after dosing. The trunk blood samples (∼1 mL) were collected in polypropylene tubes and allowed to clot at room temperature. Subsequently, the blood was centrifuged at 5600 rpm for 10 min. Serum samples were collected in new tubes. Immediately after decapitation, brains and other tissues such as the liver, lungs, kidneys, heart, spleen, gut, and adipose were removed from the skull and washed with cold 0.9% NaCl. Samples were kept at −80 °C until the day of analysis.
Serum and tissue concentrations of SSR504734 in mice were quantified by a liquid chromatography tandem mass spectrometry (LC-MS/MS) method. Stock solutions of the studied compound were prepared in methanol at a concentration of 1 mg/mL. Working solutions were prepared by dilution of the standard solutions in acetonitrile/water 1:1 (v/v). Tissue homogenates were obtained by homogenization of each tissue in distilled water at a ratio of 1:4 (w/v) using a basic T10 ULTRA-TURRAX tissue homogenizer (IKA, Poland). Mouse serum and tissues, which were used to prepare standard samples and quality control (QC) samples, were harvested from untreated healthy animals after exsanguination. Standard and QC samples were prepared by adding 5 μL of working solutions of SSR504734 to 45 μL of mouse serum or 45 μL of tissue homogenates. Real serum and homogenate samples, QC samples, and standard samples were subjected to the same precipitation procedure. Briefly, 150 μL of 0.1% formic acid solution in acetonitrile containing pentoxifylline (PTX) as an internal standard (IS) at a concentration of 5 ng/mL was added to 50 μL of analyzed serum, homogenate, standard samples, or QC samples in Eppendorf tubes and mixed on a vortex mixer for 10 min (IKA Vibrax VXR, Germany). Subsequently, samples were centrifuged at 10,000 rpm for 10 min at room temperature (Eppendorf miniSpin centrifuge). 2 μL of supernatant was subjected to LC-MS/MS analysis using an Exion LC AC HPLC system coupled to a SCIEX QTRAP 4500 triple-quadrupole mass spectrometer (Danaher Corporation, Framingham, MA, US). Chromatographic separation was performed using a Hypersil Gold C18 analytical column (2.1 × 50 mm, 3 μm) (Thermo Scientific, USA) at 25 °C. The mobile phase consisting of water containing 0.1% formic acid and acetonitrile containing 0.1% formic acid (60:40, v/v) was pumped at a flow rate of 0.5 mL/min in an isocratic elution mode. All detections were performed in positive ion mode. The selected reaction monitoring (SRM) for the transitions was m/z 397.2 → 207.0 and m/z 397.2 → 174.2 (quantifier and qualifier) for SSR504734 and m/z 279 → 181 for IS. The optimal MS parameters for SSR504734 multiple reaction monitoring (MRM) transitions selected by continuous infusion of the standard solution at the rate of 7 μL/min using a Harvard infusion pump were as follows: the declustering potential was 120 V, the collision energy was 35.6 V, the entrance potential was 10 V, and the cell exit potential was 6 V. These parameters for IS were 60, 24, 10, and 6 V, respectively. An additional tuning optimization of gas flows and temperatures was performed by flow injection analysis. The ion source temperature was maintained at 450 °C, the ion spray voltage at 4000 V, the curtain gas (CUR) was set at 25 psi, the nebulizer (GS1) and TIS (GS2) gases at 40.0 and 50.0 psi, respectively, and the collision gas (CAD) at Medium.
Data acquisition and processing were carried out using Analyst 1.7 software. The calibration curves were constructed by plotting the ratio of the peak area of the analyte to the peak area of the IS vs the concentration of the analyte and generated by weighted (1/y) nonlinear regression analysis by fitting a quadratic formula. […]

[2] = test system: TNFα, IL-6, IL-1β, TLR4, IL-10, IFN-γ, IL-18 in serum; experiment: Inflammatory markers in serum (ELISA); assay type: in vivo, mice; conditions: 14-day administration, 30 mg/kg i.p.
Method: ELISA kits were used to determine IL-1-β, IL-6, IL-10, TNF-α, and IFN-γ (EIAAB Science INC, Wuhan, Hubei, China, nos. E0563m, E0079m, E0056m, E0049m, E0133m, E0753m) and IL-18 (Biorbyt Ltd., Cambridge, United Kingdom, no. orb437211) in the liver homogenates and serum. All assays were performed according to the producer’s instructions. All samples were tested in triplicate.

[3] = mouse, ip, adipose, single 30 mg/kg i.p.
[4] = mouse, ip, brain, single 30 mg/kg i.p.
[5] = mouse, ip, gut, single 30 mg/kg i.p.
[6] = mouse, ip, heart, single 30 mg/kg i.p.
[7] = mouse, ip, kidneys, single 30 mg/kg i.p.
[8] = mouse, ip, liver, single 30 mg/kg i.p.
[9] = mouse, ip, lungs, single 30 mg/kg i.p.
[10] = mouse, ip, serum, single 30 mg/kg i.p.
[11] = mouse, ip, spleen, single 30 mg/kg i.p.

In the case of O=C(NC(c1ccccc1)C1CCCCN1)c1cccc(C(F)(F)F)c1Cl [SSR504734, 2-chloro-N-[(S)-phenyl[(2S)-piperidin-2-yl]methyl]-3-trifluoromethyl benzamide monohydrochloride], the AUClast ([1]; adipose, single 30 mg/kg i.p.) is reported as 3347.89 µg·min/mL (g tissue), the AUClast ([1]; brain, single 30 mg/kg i.p.) is reported as 1137.50 µg·min/mL (g tissue) and the “Kp (tissue-to-serum partition coefficient, AUClast(tissue)/AUClast(serum))” value ([1]; brain, single 30 mg/kg i.p., 30 mg/kg) is reported as 3.05. The AUClast ([1]; gut, single 30 mg/kg i.p.) was 10606.43 µg·min/mL (g tissue), the AUClast ([1]; heart, single 30 mg/kg i.p.) was 4841.83 µg·min/mL (g tissue) and the AUClast ([1]; kidneys, single 30 mg/kg i.p.) was 16781.00 µg·min/mL (g tissue). The AUClast ([1]; liver, single 30 mg/kg i.p.) was 8821.36 µg·min/mL (g tissue), the AUClast ([1]; lungs, single 30 mg/kg i.p.) was 33485.57 µg·min/mL (g tissue) and the Kp ([1]; mouse, adipose (relative to serum), ip, 30 mg/kg, adipose, single 30 mg/kg i.p., read-out: Kp (tissue-to-serum partition coefficient)) was 8.98. For the same molecule, the Kp ([1]; mouse, brain (relative to serum), ip, 30 mg/kg, brain, single 30 mg/kg i.p., read-out: Kp (tissue-to-serum partition coefficient, AUClast(tissue)/AUClast(serum))) was greater than 3, the Kp ([1]; mouse, gut (relative to serum), ip, 30 mg/kg, gut, single 30 mg/kg i.p., read-out: Kp (tissue-to-serum partition coefficient)) was 28.5 and the Kp ([1]; mouse, heart (relative to serum), ip, 30 mg/kg, heart, single 30 mg/kg i.p., read-out: Kp (tissue-to-serum partition coefficient)) was 13. The Cmax ([1]; mouse, ip, 30 mg/kg i.p., assuming brain tissue density of ∼1 g/mL, read-out: Cmax in the brain tissue) was 5150 ng/mL, the MRT [1, 3] was 1.37 h and the Tmax [1, 3] was 0.0833 h. For the same molecule, the half-life [1, 3] was 1.33 h, the Cmax ([1]; mouse, ip, adipose, single 30 mg/kg i.p., read-out: Cmax) was 65700 ng/g and the MRT [1, 4] was 2.36 h. For the same molecule, the Tmax [1, 4] was 0.5 h, the half-life [1, 4] was 1.75 h and the Cmax ([1]; mouse, ip, brain, single 30 mg/kg i.p., read-out: Cmax) was 5150 ng/g. The CL/F ([1]; mouse, ip, from serum vs time profile, 30 mg/kg i.p., read-out: apparent clearance (CL/F)) was 77.8 mL/min/kg, the Vd/F ([1]; mouse, ip, from serum vs time profile, 30 mg/kg i.p., read-out: volume of distribution during the terminal phase (Vz/F)) was 11.1 L/kg and the MRT [1, 5] was 1.96 h. For the same molecule, the Tmax [1, 5] was 0.0833 h, the half-life [1, 5] was 1.73 h and the Cmax ([1]; mouse, ip, gut, single 30 mg/kg i.p., read-out: Cmax) was 77900 ng/g. For the same molecule, the MRT [1, 6] was 1.68 h, the Tmax [1, 6] was 0.25 h and the half-life [1, 6] was 1.31 h. It also gave a Cmax ([1]; mouse, ip, heart, single 30 mg/kg i.p., read-out: Cmax) of 38300 ng/g, an MRT [1, 7] of 2.03 h and a Tmax [1, 7] of 0.5 h. For the same molecule, the half-life [1, 7] was 1.4 h, the Cmax ([1]; mouse, ip, kidneys, single 30 mg/kg i.p., read-out: Cmax) was 93500 ng/g and the MRT [1, 8] was 1.76 h. It also gave a Tmax [1, 8] of 0.0833 h, a half-life [1, 8] of 1.52 h and a Cmax ([1]; mouse, ip, liver, single 30 mg/kg i.p., read-out: Cmax) of 101000 ng/g. The MRT [1, 9] was 2.6 h, the Tmax [1, 9] was 0.25 h and the half-life [1, 9] was 2.04 h. For the same molecule, the Cmax ([1]; mouse, ip, lungs, single 30 mg/kg i.p., read-out: Cmax) was 147000 ng/g, the MRT [1, 10] was 1.86 h and the Tmax [1, 10] was 0.25 h. It also gave a half-life [1, 10] of 1.65 h, a Cmax ([1]; mouse, ip, serum, single 30 mg/kg i.p., read-out: Cmax) of 3000 ng/mL and an MRT [1, 11] of 1.66 h. For the same molecule, the Tmax [1, 11] was 0.25 h, the half-life [1, 11] was 1.6 h and the Cmax ([1]; mouse, ip, spleen, single 30 mg/kg i.p., read-out: Cmax) was 193000 ng/g. For the same molecule, the Kp ([1]; mouse, kidneys (relative to serum), ip, 30 mg/kg, kidneys, single 30 mg/kg i.p., read-out: Kp (tissue-to-serum partition coefficient)) was 45, the Kp ([1]; mouse, liver (relative to serum), ip, 30 mg/kg, liver, single 30 mg/kg i.p., read-out: Kp (tissue-to-serum partition coefficient)) was 23.7 and the Kp ([1]; mouse, lungs (relative to serum), ip, 30 mg/kg, lungs, single 30 mg/kg i.p., read-out: Kp (tissue-to-serum partition coefficient)) was 89.8. The Kp ([1]; mouse, spleen (relative to serum), ip, 30 mg/kg, spleen, single 30 mg/kg i.p., read-out: Kp (tissue-to-serum partition coefficient)) was 50, the AUClast ([1]; serum, single 30 mg/kg i.p.) was 372.73 µg·min/mL (g tissue) and the AUClast ([1]; spleen, single 30 mg/kg i.p.) was 18616.26 µg·min/mL (g tissue). The “serum concentration of IFN-γ” value [2] was “no statistically significant differences”, the “serum concentration of IL-1β” value [2] was “significant increase” and the “serum concentration of IL-6” value [2] was “significant increase”. For the same molecule, the “serum concentration of IL-10” value [2] was “significant increase”, the “serum concentration of IL-18” value [2] was “no statistically significant differences” and the “serum concentration of TNFα” value [2] was “significant increase”. The “serum concentration of TRL4” value [2] was “significant increase”.
